Test results as given in US10889616B2, “Cytotoxic tubulysin compounds for conjugation” (priority 2014, dated 2021).
Starred links: 1 amine or outer side, 2 acyl side, 3 side chain; linkers in the order of their positions; H or OH if unused. Non-standard residues stand in square brackets, D forms with d. Residues, ends and D or L forms follow the SMILES beside them. *: point of attachment. NPrTuv(OPr) = CCCO[C@H](C[C@H](C(C)C)N(CCC)[*:1])c1nc(C(=O)[*:2])cs1; Hexanoyl(6-maleimido) = O=C1C=CC(=O)N1CCCCCC(=O)*; X1 = C[C@@H](C[C@H](Cc1ccccc1)N*)C(=O)O; PABC = O=C(OCc1ccc(N[*:1])cc1)[*:2]; NMeI = CC[C@H](C)[C@H](NC)C(=O)O; Cit = NC(=O)NCCC[C@H](N)C(=O)O

What was measured:
Format in all cases: cell-based
BT474 = test: cytotoxic activity, IC50 against BT474 cells; settings: Homo sapiens; BT474 / BT-474 cells
HT29 = test: cytotoxic activity, IC50 against HT29 cells; settings: Homo sapiens; HT29 / HT-29 cells
SKBR3 = test: cytotoxic activity, IC50 against SKBR3 cells; settings: Homo sapiens, SK-BR-3
SK-N-MC = test: cytotoxic activity, IC50 against SK-N-MC cells; settings: Homo sapiens
MDA-MB-468 = test: cytotoxic activity, IC50 against MDA-MB-468 cells; settings: Homo sapiens
HEK293 = test: cytotoxic activity, IC50 against HEK293 cells; settings: Homo sapiens
MCF7 = test: cytotoxic activity, IC50 against MCF7 cells; settings: Homo sapiens; MCF7 / MCF-7 cells
T47D = test: cytotoxic activity, IC50 against T47D cells; settings: Homo sapiens; T47D / T-47D cells
[1] = IC50 as ADC with Herceptin and DAR 2; settings: compound conjugated to Herceptin, DAR 2; cell line not given
HT1080 = test: cytotoxic activity, IC50 against HT1080 cells; settings: Homo sapiens, HT-1080
NCl-H1299 = test: cytotoxic activity, IC50 against NCl-H1299 cells
A2780 = test: cytotoxic activity, IC50 against A2780 cells; settings: Homo sapiens

SMILES	IC50 (BT474)	IC50 (SK-N-MC)	IC50 (MDA-MB-468)	IC50 (MCF7)	also measured
CCCO[C@H](C[C@H](C(C)C)N(CCC)C(=O)[C@@H](NC(=O)[C@H]1CCCCN1)[C@@H](C)CC)c1nc(C(=O)N[C@@H](Cc2ccc(O)cc2)C[C@H](C)C(=O)O)cs1 [TAM334]	5.2 nM	–	–	–	IC50 (HT29): 12.3 nM; IC50 (SKBR3): 5.4 nM
CCCO[C@H](C[C@H](C(C)C)N(CCC)C(=O)[C@@H](NC(=O)[C@H]1CCCCN1C)[C@@H](C)CC)c1nc(C(=O)N[C@@H](Cc2ccc(OCCNC)cc2)C[C@H](C)C(=O)O)cs1 [TAM365]	–	0.92 nM	3.41 nM	–	IC50 (HEK293): 0.99 nM
CCCO[C@H](C[C@H](C(C)C)N(CCC)C(=O)[C@@H](NC(=O)[C@H]1CCCCN1C)[C@@H](C)CC)c1nc(C(=O)N[C@@H](Cc2ccc(OC(=O)NCCOCCOCCN)cc2)C[C@H](C)C(=O)O)cs1 [TAM371]	–	< 0.01 nM	0.13 nM	–	IC50 (HEK293): 0.1 nM
CCCO[C@H](C[C@H](C(C)C)N(CCC)C(=O)[C@@H](NC(=O)[C@H]1CCCCN1C)[C@@H](C)CC)c1nc(C(=O)N[C@@H](Cc2ccc(O)cc2)C[C@H](C)C(=O)NNC(=O)OCCOCCOCCN)cs1 [TAM375]	–	–	25.8 nM	–	IC50 (HEK293): 34.6 nM; IC50 (SKBR3): 18.8 nM
CCCO[C@H](C[C@H](C(C)C)N(CCC)C(=O)[C@@H](NC(=O)[C@H]1CCCCN1C)[C@@H](C)CC)c1nc(C(=O)N[C@@H](Cc2ccc(O)cc2)C[C@H](C)C(=O)NNC(=O)OCCOCCN=[N+]=[N-])cs1 [TAM426]	–	–	1.71 nM	1.33 nM	IC50 (T47D): 2 nM
CCCO[C@H](C[C@H](C(C)C)N(CCC)C(=O)[C@@H](NC(=O)[C@H]1CCCCN1C)[C@@H](C)CC)c1nc(C(=O)N[C@@H](Cc2ccc(O)cc2)C[C@H](C)C(=O)NNC(=O)OCCOCCN)cs1 [TAM428]	–	–	16.8 nM	20.6 nM	IC50 (T47D): 32 nM; IC50 [1]: 0.219 nM
CCCO[C@H](C[C@H](C(C)C)N(CCC)C(=O)[C@@H](NC(=O)[C@H]1CCCCN1C)[C@@H](C)CC)c1nc(C(=O)N[C@@H](Cc2ccc(OCCCCN)cc2)C[C@H](C)C(=O)O)cs1 [TAM486]	50.9 nM	48.5 nM	81.5 nM	57.5 nM	IC50 (T47D): 142 nM
CCCO[C@H](C[C@H](C(C)C)N(CCC)C(=O)[C@@H](NC(=O)[C@@H](NC)[C@@H](C)CC)[C@@H](C)CC)c1nc(C(=O)N[C@@H](Cc2ccccc2)C[C@H](C)C(=O)O)cs1 [TAM491]	1.84 nM	4.57 nM	2.68 nM	1.77 nM	–
CCCO[C@H](C[C@H](C(C)C)N(CCC)C(=O)[C@@H](NC(=O)[C@H](CC(C)C)NC)[C@@H](C)CC)c1nc(C(=O)N[C@@H](Cc2ccccc2)C[C@H](C)C(=O)OC)cs1 [TAM496]	95.2 nM	300 nM	214 nM	103 nM	–
CCCO[C@H](C[C@H](C(C)C)N(CCC)C(=O)[C@@H](NC(=O)[C@H](CC(C)C)NC)[C@@H](C)CC)c1nc(C(=O)N[C@@H](Cc2ccccc2)C[C@H](C)C(=O)O)cs1 [TAM497]	50 nM	83.3 nM	85.6 nM	64.3 nM	–
CCCO[C@H](C[C@H](C(C)C)N(CCC)C(=O)[C@@H](NC(=O)[C@H]([C@@H](C)CC)N(C)C)[C@@H](C)CC)c1nc(C(=O)N[C@@H](Cc2ccccc2)C[C@H](C)C(=O)OC)cs1 [TAM521]	4.07 nM	15.3 nM	20 nM	6.74 nM	–
CCCO[C@H](C[C@H](C(C)C)N(CCC)C(=O)[C@@H](NC(=O)[C@H]([C@@H](C)CC)N(C)C)[C@@H](C)CC)c1nc(C(=O)N[C@@H](Cc2ccccc2)C[C@H](C)C(=O)O)cs1 [TAM522]	0.98 nM	1.54 nM	2 nM	–	–
CCCO[C@H](C[C@H](C(C)C)N(CCC)C(=O)[C@@H](NC(=O)[C@H]1CCCCN1C)[C@@H](C)CC)c1nc(C(=O)N[C@@H](Cc2ccccc2)C[C@H](C)C(=O)NNC(=O)OCCOCCN)cs1 [TAM523]	65 nM	150 nM	221 nM	92.1 nM	–
CCCO[C@H](C[C@H](C(C)C)N(CCC)C(=O)[C@@H](NC(=O)[C@H]([C@@H](C)CC)N(C)C(=O)OCc1ccc(NC(=O)[C@H](CCCNC(N)=O)NC(=O)[C@@H](NC(=O)CCCCCN2C(=O)C=CC2=O)C(C)C)cc1)[C@@H](C)CC)c1nc(C(=O)N[C@@H](Cc2ccccc2)C[C@H](C)C(=O)O)cs1 [TAM551] ({Hexanoyl(6-maleimido)}-V[Cit][PABC][NMeI]I[NPrTuv(OPr)]-X1)	–	–	–	–	IC50 (HT1080): 90 nM
CCCO[C@H](C[C@H](C(C)C)N(CCC)C(=O)[C@@H](NC(=O)[C@H]1CCCCN1C)[C@@H](C)CC)c1nc(C(=O)N[C@@H](Cc2ccc(O)cc2)C[C@H](C)C(=O)NNC(=O)OCCOCCOCCOCCNC(=O)CCCCCN2C(=O)C=CC2=O)cs1 [TAM552]	–	–	–	–	IC50 (HT1080): 10 nM
CCCO[C@H](C[C@H](C(C)C)N(CCC)C(=O)[C@@H](NC(=O)[C@H]1CCCCN1C)[C@@H](C)CC)c1nc(C(=O)N[C@@H](Cc2ccc(O)cc2)C[C@H](C)C(=O)NCCOCCOCCOCCOCCOCCOCCN)cs1 [TAM597]	–	–	–	–	IC50 [1]: 0.172 nM
CCCO[C@H](C[C@H](C(C)C)N(CCC)C(=O)[C@@H](NC(=O)[C@@H](NC)[C@@H](C)CC)[C@@H](C)CC)c1nc(C(=O)N[C@@H](Cc2ccc(O)cc2)C[C@H](C)C(=O)OC)cs1 [TAM598]	–	6.74 nM	5.15 nM	4.39 nM	IC50 (T47D): 8.17 nM
CCCO[C@H](C[C@H](C(C)C)N(CCC)C(=O)[C@@H](NC(=O)[C@@H](NC)[C@@H](C)CC)[C@@H](C)CC)c1nc(C(=O)N[C@@H](Cc2ccc(O)cc2)C[C@H](C)C(=O)O)cs1 [TAM599]	–	0.77 nM	0.64 nM	0.65 nM	IC50 (T47D): 1.22 nM
CCCO[C@H](C[C@H](C(C)C)N(CCO)C(=O)[C@@H](NC(=O)[C@H]1CCCCN1C)[C@@H](C)CC)c1nc(C(=O)N[C@@H](Cc2ccc(O)cc2)C[C@H](C)C(=O)O)cs1 [TAM608]	1.69 nM	1.54 nM	2.24 nM	4.06 nM	–
CCCO[C@H](C[C@H](C(C)C)N(CCC)C(=O)[C@@H](NC(=O)[C@H](NC)[C@@H](C)CC)[C@@H](C)CC)c1nc(C(=O)N[C@@H](Cc2ccc(O)cc2)C[C@H](C)C(=O)OC)cs1 [TAM609]	0.5 nM	2.12 nM	3.32 nM	2.17 nM	–
CCCO[C@H](C[C@H](C(C)C)N(CCC)C(=O)[C@@H](NC(=O)[C@H](NC)[C@@H](C)CC)[C@@H](C)CC)c1nc(C(=O)N[C@@H](Cc2ccc(O)cc2)C[C@H](C)C(=O)O)cs1 [TAM610]	0.1 nM	0.1 nM	0.3 nM	0.2 nM	–
CC[C@H](C)[C@H](NC(=O)[C@H]1CCCCN1C)C(=O)N(COC(=O)CC(C)C)[C@H](C[C@@H](OC(C)=O)c1nc(C(=O)N[C@@H](Cc2ccc(O)cc2)C[C@H](C)C(=O)NCCS)cs1)C(C)C [TAM674]	–	–	–	–	IC50 (NCl-H1299): 19 nM; IC50 (HT29): 4.4 nM; IC50 (A2780): 8.7 nM
CCCO[C@H](C[C@H](C(C)C)N(CCC)C(=O)[C@@H](NC(=O)[C@H]1CCCCN1C)[C@@H](C)CC)c1nc(C(=O)N[C@@H](Cc2ccccc2)C[C@H](C)C(=O)NN)cs1 [TPM320]	11 nM	16 nM	–	–	–
